Reference: patent US10543183B2, “Treatment and diagnosis of melanoma” (The Rockefeller University, priority 2012, dated 2020)

Key:
[1] = system: B16F10 mouse melanoma cells; assay: subcutaneous B16F10 tumor growth in mice; assay type: in vivo; details: 50 mg/kg, i.p., daily
[2] = system: B16F10 mouse melanoma cells; assay: subcutaneous B16F10 tumor growth in mice; assay type: in vivo; details: 50 mg/kg, i.p., daily; remark: listed apart in the source
Protocol: First, the cells were treated with 500 μg/mL DTIC for one week. Following this initial DTIC treatment, the remaining (˜10%) viable cells were allowed to recover for one week, after which 750 μg/mL of DTIC was added to the cell media for 5 days. Subsequent to this high-dose treatment, the cells were allowed to recover in the presence of low-dose DTIC (100 μg/mL) for one week. The cells were then continuously cultured in cell media containing 200 μg/mL DTIC for at least one month prior to grafting the cells into mice. DTIC was added to fresh cancer cell media every 3 days. […] DTIC was dissolved in the presence of citric acid (1:1 by weight) in water and administered daily by intraperitoneal injection.

[3] = system: ApoE expression in human melanoma cells; assay: ApoE mRNA expression by qRT-PCR in melanoma cells; assay type: cell-based; details: MeWo cells; 500 nM, 1 μM, or 2 μM for 48 hours
Protocol: Total RNA was extracted from various cell lines using the miRvana kit (AM1560, Applied Biosystems, Austin, Tex.). The expression levels of mature miRNAs were quantified using the Taqman miRNA expression assay (4427975-0002228, Applied Biosystems). RNU44 was used as an endogenous control for normalization. For mRNA expression analyses, 600 ng of total RNA was reverse transcribed using the cDNA First-Strand Synthesis Kit (18080-051, Invitrogen), and roughly 200 ng of the resulting cDNA was then mixed with SYBR green PCR Master Mix (4309155, Applied Biosystems) and the appropriate primers. Each reaction was performed in quadruplicate, and mRNA expression was quantified by performing real-time PCR amplification using an ABI Prism 7900HT Real-Time PCR System (Applied Biosystems). GAPDH was used as an endogenous control for normalization. The following primers were used: […]
RNA was extracted from whole cell lysates using the Total RNA Purification Kit (17200, Norgen, Thorold, Canada). 600 ng of total RNA was then reverse transcribed into cDNA using the cDNA First-Strand Synthesis Kit (18080-051, Invitrogen), and quantitative real-time PCR amplification was performed as previously described (Pencheva et al., 2012) using an ABI Prism 7900HT Real-Time PCR System (Applied Biosystems, Austin, Tex.). Each PCR reaction was carried out in quadruplicates. Gene expression was normalized to GAPDH, which was used as an endogenous control.
For every sample, 600 ng of RNA was reverse transcribed into cDNA using the cDNA First-Strand Synthesis kit (Invitrogen). Approximately 200 ng of cDNA was mixed with SYBR® green PCR Master Mix and the corresponding forward and reverse primers specific for detection of human ApoE. Each reaction was carried out in quadruplicates, and ApoE mRNA expression levels were measured by quantitative real-time PCR amplification using an ABI Prism 7900HT Real-Time PCR System (Applied Biosystems). The relative ApoE expression was determined using the ΔΔCt method. GAPDH was used as an endogenous control for normalization purposes.

[4] = system: endothelial cells (HUVEC) recruited by human melanoma cells; assay: trans-well endothelial recruitment assay; assay type: cell-based; details: MeWo, HT-144, SK-Mel-2, SK-Mel-334.2; 1 μM for 72 hours
Protocol: 5×10^4 cancer cells were seeded into 24-well plates approximately 24 hours prior to the start of the assay. HUVEC's were grown to 80% confluency and serum starved in EGM-2 media supplemented with 0.2% FBS for 16 hours. HUVEC's were then pulsed with Cell Tracker Red CMTPX dye (C34552, Invitrogen) for 45 minutes. Meanwhile, cancer cells were washed with PBS, 0.5 mL of 0.2% FBS EGM-2 media was added to each well, and a 3.0 μm HTS Fluoroblock insert (351151, BD Falcon, San Jose, Calif.) was placed into each well. 1×10^5 HUVEC's, resuspended in 0.5 mL of starvation media, were seeded into each trans-well insert, and the recruitment assay was allowed to proceed for 16-18 hours at 37° C. For neutralization antibody and/or recombinant protein experiments, antibody/protein was then added to each well at the appropriate concentration as indicated in the figures: 40 μg/mL anti-ApoE 1D7, 40 μg/mL anti-IgG, 100 μM rhApoE3, and 100 μM BSA. Upon completion of the assay, the inserts were processed and analyzed as described for the matrigel invasion assay above (See Matrigel Invasion Assay).
The endothelial recruitment assay was carried out as previously described (Pencheva et al., 2012; Png et al., 2012). Melanoma cells were treated with DMSO, GW3965, T0901317, or Bexarotene at 1 μM for 56 hours, after which 5×10^4 cells were seeded in a 24-well plate in the presence of each drug and allowed to attach for 16 hours prior to starting the assay. HUVEC cells were serum-starved overnight in EGM-2 media containing 0.2% FBS. The following day, 1×10^5 HUVEC cells were seeded into a 3.0 μm HTS Fluoroblock trans-well migration insert (351151, BD Falcon, San Jose, Calif.) fitted into each well containing cancer cells at the bottom. The HUVEC cells were allowed to migrate towards the cancer cells for 20 hours at 37° C., after which the inserts were processed as previously described (Pencheva et al., 2012). For ApoE antibody neutralization experiments, 40 μg/mL 1D7 anti-ApoE blocking antibody (Heart Institute, University of Ottawa, Ottawa, Canada) or 40 μg/mL anti-IgG control antibody (AB-108-C, R&D Systems, Minneapolis, Minn.) was added to each trans-well insert at the start of the assay.
Subsequently, 5×10^4 cancer cells were seeded into 24-well plates in the presence of each drug or DMSO and allowed to attach for 16 hours prior to starting the assay. Human umbilical vein endothelial cells (HUVEC cells) were serum-starved in 0.2% FBS-containing media overnight. The following day, 1×10^5 HUVEC cells were seeded into a 3.0 μm HTS Fluoroblock insert (351151, BD Falcon) fitted into each well containing the cancer cells at the bottom. The HUVEC cells were allowed to migrate towards the cancer cells for 20 hours, after which the inserts were washed in PBS, fixed in 4% PFA, labeled with DAPI, and mounted on slides. The basal side of each insert was imaged using an inverted fluorescence microscope (Zeiss Axiovert 40 CFL) at 5× magnification, and the number of DAPI-positive cells was quantified using ImageJ.

melanoma cells = assay: cell proliferation and viability assay; assay type: cell-based, human; details: MeWo, HT-144, SK-Mel-334.2; 1 μM, 5 days
Protocol: To determine the effects of miR-199a or miR-1908 over-expression and combinatorial LNA-induced miRNA inhibition on cell proliferation, 2.5×10^4 cells were seeded in triplicate in 6-well plates, and viable cells were counted after 5 days. […] Viable cells were counted after 8, 24, 48, 72, and 120 hours.
After 5 days, the number of viable and dead cells was counted using the trypan blue dye (72-57-1, Sigma-Aldrich), which selectively labels dead cells.

[5] = system: human melanoma cells (MeWo, MeWo-LM2, HT-144, SK-Mel-2, SK-Mel-334.2); assay: trans-well matrigel cell invasion assay, melanoma cells; assay type: cell-based; details: MeWo, HT-144, SK-Mel-2, SK-Mel-334.2; 1 μM for 72 hours
Protocol: Cancer cells were serum-starved in 0.2% FBS DMEM-based media for 12 hours. Trans-well invasion chambers (354480, BD Biosciences, Bedford, Mass.) were pre-equilibrated prior to beginning the assay by adding 0.5 mL of starvation media to the top and bottom chambers. After 30 minutes, the media in the top chamber was removed, and 0.5 mL of media containing 1×10^5 cancer cells was added into each matrigel-coated trans-well insert and incubated at 37° C. for 24 hours. For neutralization antibody and/or recombinant protein experiments, antibody/recombinant protein was added to each well at the start of the assay at the following concentrations as indicated in the figures: 5-40 μg/mL anti-ApoE 1D7 (Heart Institute, University of Ottawa), 5-40 μg/mL anti-IgG (AB-108-C, R&D Systems, Minneapolis, Minn.), 100 μM recombinant human ApoE3 (4696, BioVision, Mountain View, Calif.), and 100 μM BSA (A2153, Sigma-Aldrich). Upon completion of the assay, matrigel-coated inserts were washed with PBS, the cells at the top side of each insert were scraped off, and the inserts were fixed in 4% paraformaldehyde for 15 minutes. The inserts were then cut out and mounted onto slides using VectaShield mounting medium containing DAPI (H-1000, Vector Laboratories, Burlingame, Calif.). The basal side of each insert was imaged using an inverted fluorescence microscope (Zeiss Axiovert 40 CFL) at 5× magnification, taking three representative images for each insert. The number of invaded cells was quantified using ImageJ (NIH).
The cell invasion assay was performed as previously described in detail (Pencheva et al., 2012) using a trans-well matrigel invasion chamber system (354480, BD Biosciences). In brief, various melanoma cells were cultured in the presence of DMSO, GW3965, T0901317, or Bexarotene at 1 μM for 56 hours, after which melanoma cells were switched to starvation media (0.2% FBS) for 16 hours in the presence of each drug. Following starvation, cells were seeded into matrigel-coated trans-well inserts, and the invasion assay was allowed to proceed for 24 hours at 37° C. For ApoE antibody neutralization experiments, 40 μg/mL 1D7 anti-ApoE blocking antibody (Heart Institute, University of Ottawa, Ottawa, Canada) or 40 μg/mL anti-IgG control antibody (AB-108-C, R&D Systems, Minneapolis, Minn.) was added to each trans-well insert at the start of the assay.
The cells were then serum starved for 16 hours in 0.2% FBS media in the presence of each corresponding drug or DMSO. Following serum starvation, the cells were subjected to the trans-well invasion assay using a matrigel invasion chamber system (354480, BD Biosciences). Invasion chambers were pre-equilibrated prior to the assay by adding 0.5 mL of starvation media to the top and bottom wells. Meanwhile, cancer cells were trypsinized and viable cells were counted using trypan blue. Cancer cells were then resuspended at a concentration of 2×10^5 cells/1 mL starvation media, and 0.5 mL of cell suspension, containing 1×10^5 cells, was seeded into each trans-well. The invasion assay was allowed to proceed for 24 hours at 37° C. […] Following fixation, the inserts were washed in PBS, cut out, and mounted onto slides using VectaShield mounting medium containing DAPI nuclear stain (H-1000, Vector Laboratories). The basal side of each insert was imaged using an inverted fluorescence microscope (Zeiss Axiovert 40 CFL) at 5× magnification, and the number of DAPI-positive cells was quantified using ImageJ.

SMILES: CN(C)/N=N/c1[nH]cnc1C(N)=O [dacarbazine, reference compound]
- growth of DTIC-sensitive parental B16F10 line [1]: significantly suppressed
- tumor growth by B16F10 DTIC-resistant cells [2]: did not affect

SMILES: Fc1ccc(-c2c3cccc(C(F)(F)F)c3nn2Cc2ccc(F)cc2Cl)cc1 [LXR-623 3]
- ApoE expression induction [3]: varied degrees of ApoE expression induction

SMILES: C=C(c1ccc(C(=O)O)cc1)c1cc2c(cc1C)C(C)(C)CCC2(C)C [bexarotene, reference compound]
- ability of melanoma cells to recruit endothelial cells [4]: did not significantly affect
- cell proliferation or cell viability rates (melanoma cells): did not affect
- ability of melanoma cells to invade through matrigel [5]: suppressed invasion only in half of the melanoma lines tested
